From patent US20190352339A1, “PEPTIDE INHIBITOR OF TRANSMEMBRANE PORE FORMATION AND EFFLUXPUMP FUNCTION IN A SMALL MULTIDRUG RESISTANCE PROTEIN FROM PSEUDOMONAS AERUGINOSA” (priority 2017, published 2019) come the findings set out here.

Square brackets hold non-standard residues; d marks the D form. Peptide text beside a SMILES is read from it. Sar = CNCC(=O)O Where only a bound is given, the exact number is not on record here.

The test system of series [1] is E. coli (BL21 strain) overexpressing the SMR from P. aeruginosa (Psmr). The series is described as follows: Resensitization of bacteria to growth inhibition by benzalkonium chloride (BZK). Format: cell-based. The settings on record: for inhibition of bacterial growth, single agent: agent alone (sublethal BZK or non-toxic dose of peptide); for inhibition of bacterial growth, single agent / inhibition of bacterial growth, peptide together with BZK: result in words; for inhibition of bacterial growth, peptide together with BZK: sub-lethal concentration of BZK plus peptide. The procedure: FIG. 7. Resensitization of bacteria to growth inhibition by the disinfectant benzalkonium chloride (BZK). […] However, when the BZK and TM4 peptide were both present at the same concentrations, the bacterial growth was reduced to <1% [i.e., inhibited to >99% (arrow)]. As a control, the same experiment was performed with a ‘scrambled’ version of TM4 peptide (termed SCR control), having identical amino acid composition but lacking the GG7 motif for binding to Psmr and disruption of its native dimer. […] TM4 peptide=Ac-Ala-(Sar)3-[…]-KKK—NH2 (see also Table 1). SCR control peptide=Ac-Ala-(Sar)3-LLVLAGIGIIGLV-KKK—NH2.
Antimicrobial peptides are exciting leads in the development of novel biocidal agents. Such peptides are currently used commercially in topical formulations, such as the lipopeptides polymyxin B and daptomycin [Kalorama Information Market Intelligence Report, “Health Care Infection Control Market” (126 reports; published on-line May, 2016)]. […] 2013. p. 128]. Despite this, we are not aware of any reports of a peptide that inhibits and/or prevents bacterial resistance to BZK and to other biocide mainstays of hospital and health care facilities. In this context, we examined the ability of the prototypic inhibitor peptides described herein to resensitize pathogenic bacteria to BZK and related disinfectants.

The target of series [2] is T1, SMR from P. aeruginosa (Psmr) (Pseudomonas aeruginosa, UniProt Q9HUH5).
T1 construct: expressed in transfected cells; host or cells: E. coli
T1 sequence (Q9HUH5 whole entry, looked up): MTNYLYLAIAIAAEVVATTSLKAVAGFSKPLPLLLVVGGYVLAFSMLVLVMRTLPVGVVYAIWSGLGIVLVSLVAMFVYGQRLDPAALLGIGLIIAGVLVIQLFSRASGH
The series is described as follows: EtBr efflux assay, E. coli containing plasmid-borne Psmr. Type of series: cell-based. The settings on record: 8 μM peptide; FIG. 5B. On the procedure:
(§1) FIG. 5. (A) Ethidium bromide efflux from E. coli bacteria expressing Hsmr. Peptides were added to ethidium bromide (EtBr) treated cells and incubated for 1 hr. The fluorescence of EtBr drops as the toxin is effluxed from the cells. ‘No peptide’ (maximum efflux control) is depicted in black. The core sequences of the peptides studied are based on the consensus sequence in Table 1. Residues in red emphasize retention of the common SMR TM4-TM4 interface in pathogenic bacteria. (B) EtBr efflux from E. coli containing plasmid-borne SMR from P. aeruginosa, (Psmr), as mediated by peptide LIN (full sequence=Ac-A(Sar)3-^88IIGIALINAGVVV^100-KKK-NH2). This experiment was performed as described in FIG. 4.
EtBr efflux represents a rapid and validated means by which to screen for SMR-mediated resistance activity [Poulsen and Deber, 2012, Antimicrob. Agents Chemother. 56, 3911-3916]. Here, E. coli cells are incubated with the peptide, EtBr and carbonyl cyanide 3-chlorophenylhydrazone (CCCP), a widely-used ionophore that acts as a disruptor of the proton-motive force. Upon its removal, EtBr efflux is monitored by fluorescence decay.
In this context, we have recently performed two pilot studies. […]

The test system of another series is Hsmr. The series is described as follows: EtBr efflux assay, E. coli expressing Hsmr. The settings on record: E. coli cells expressing Hsmr, EtBr fluorescence decay. Type of series: cell-based, Halobacterium salinarum. On the procedure:
(§2) FIG. 4. (A) Proof-of-concept: Inhibition of Hsmr activity by an SMR TM4-mimic peptide. Hsmr-mediated efflux of the fluorescent toxicant ethidium bromide (EtBr) from E. coli cells upon treatment with a peptide derived from Hsmr TM4(85-105) [sequence shown]. Curves represent the change in EtBr fluorescence upon exiting the bacteria. Ac-A=acetyl-Ala. The black line indicates efflux by Hsmr in the absence of peptide; red line=efflux after addition of 1 μM TM4 peptide. The % efflux is compared in the black and red bars at the right. (B) Bioactivity profiles of designed SMR drug efflux inhibitor peptides. Four assays—EtBr efflux activity (Efflux), EtBr resensitization (ER), antimicrobial activity (AA), and hemolytic activity in human red blood cells (RBC) are depicted for linear peptides TM4(85-105) (left panel), and TM4(88-100) (centre); and stapled (S) peptide S-TM4(88-100)-N95 (right). Values for ER, AA and RBCs are given as the minimal inhibitory (MIC) or hemolytic concentration (MHC) (right axis).
as §1, with “4. […]” for “4.”
EtBr efflux represents a rapid and validated means by which to screen for SMR-mediated resistance activity [Poulsen and Deber, 2012, Antimicrob. […] Upon its removal, EtBr efflux is monitored by fluorescence decay.

Series [3] relates to human red blood cells (RBCs). Format: cell-based. The settings on record: for minimal hemolytic concentration (MHC): red cells of human. The procedure:
as §2
As a necessary measure for any projected clinical applications of the designed inhibitors, hemolytic activity of peptides is assayed in human RBCs to confirm mammalian cell tolerance [Yin et al., 2012, J. Biol. Chem. 287, 7738-7745].

A further series concerns E. coli. Description: EtBr resensitization assay. Format: cell-based. The settings on record: sublethal toxicant plus peptide; FIG. 4B, result in words. The procedure:
as §2
Resensitization to EtBr and other toxic SMR substrates are evaluated by incubating the bacteria with a sublethal concentration of the toxicant and twofold dilutions of peptide at 37° C. for 20 hr, after which bacterial growth (or lack thereof) is evaluated [Bellman-Sickert et al., 2015, J. Biol. Chem. 290, 1752-1759]. […]

[4] abbreviates: sublethal BZK and non-toxic dose of peptide both present, FIG. 7.

“Ac-Ala-(Sar)3-LLGIGLIIAGVLV-KKK—NH2 (Ac-A[Sar][Sar][Sar]LLGIGLIIAGVLVKKK-NH2; SMILES CC[C@H](C)[C@H](NC(=O)CNC(=O)[C@H](CC(C)C)NC(=O)[C@H](CC(C)C)NC(=O)CN(C)C(=O)CN(C)C(=O)CN(C)C(=O)[C@H](C)NC(C)=O)C(=O)NCC(=O)N[C@@H](CC(C)C)C(=O)N[C@H](C(=O)N[C@H](C(=O)N[C@@H](C)C(=O)NCC(=O)N[C@H](C(=O)N[C@@H](CC(C)C)C(=O)N[C@H](C(=O)N[C@@H](CCCCN)C(=O)N[C@@H](CCCCN)C(=O)N[C@@H](CCCCN)C(N)=O)C(C)C)C(C)C)[C@@H](C)CC)[C@@H](C)CC) [TM4 peptide]”: in series [1], the “inhibition of bacterial growth, single agent” value (from here on “inhibition … single agent”) was “neither of which individually significantly inhibited bacterial growth” and the “inhibition of bacterial growth, peptide together with BZK” value is recorded as “completely abolishes E. coli growth”. Moreover, in series [1] (setting [4]), the bacterial growth is on record as below 1% and the “inhibition of bacterial growth” value is recorded as above 99%.
On to “benzalkonium chloride [BZK, reference compound]”, for which, in series [1], the “inhibition … single agent” value is “neither of which individually significantly inhibited bacterial growth”.
For “Ac-A(Sar)3-^88IIGIALINAGVVV^100-KKK-NH2 (Ac-A[Sar][Sar][Sar]IIGIALINAGVVVKKK-NH2; SMILES CC[C@H](C)[C@H](NC(=O)CNC(=O)[C@@H](NC(=O)[C@@H](NC(=O)CN(C)C(=O)CN(C)C(=O)CN(C)C(=O)[C@H](C)NC(C)=O)[C@@H](C)CC)[C@@H](C)CC)C(=O)N[C@@H](C)C(=O)N[C@@H](CC(C)C)C(=O)N[C@H](C(=O)N[C@@H](CC(N)=O)C(=O)N[C@@H](C)C(=O)NCC(=O)N[C@H](C(=O)N[C@H](C(=O)N[C@H](C(=O)N[C@@H](CCCCN)C(=O)N[C@@H](CCCCN)C(=O)N[C@@H](CCCCN)C(N)=O)C(C)C)C(C)C)C(C)C)[C@@H](C)CC)”, the “inhibition of Psmr-mediated EtBr efflux” value in series [2] was “inhibition of efflux”.
For `CC[C@H](C)[C@H](NC(=O)[C@H](CC(C)C)NC(=O)[C@H](C)NC(=O)[C@H](CC(C)C)NC(=O)CNC(=O)[C@@H](NC(=O)[C@@H](NC(=O)CN(C)C(=O)CN(C)C(=O)CN(C)C(=O)[C@H](C)NC(C)=O)C(C)C)C(C)C)C(=O)N[C@H](C(=O)N[C@@H](C)C(=O)NCC(=O)N[C@H](C(=O)N[C@H](C(=O)N[C@H](C(=O)N[C@@H](CCCCN)C(=O)N[C@@H](CCCCN)C(=O)N[C@@H](CCCCN)C(N)=O)C(C)C)C(C)C)C(C)C)C(C)C` [TM4(88-100)] (Ac-A[Sar][Sar][Sar]VVGLALIVAGVVVKKK-NH2), the “inhibition of Hsmr-mediated EtBr efflux” value is given as “significant efflux” with Hsmr and “maintain SMR inhibitory function at levels comparable to the full-length TM4 peptide” with Hsmr (listed as Hsmr TM4(88-100)). Also, the hemolytic activity entry in series [3] was “total absence of hemolysis”. Besides, the “minimal hemolytic concentration (MHC)” value in series [3] was above 200 µM. In addition, the “EtBr resensitization (ER)” value with E. coli is recorded as “excellent resensitization”.
On to “Ac-Ala-(Sar)3-LLVLAGIGIIGLV-KKK—NH2 (Ac-A[Sar][Sar][Sar]LLVLAGIGIIGLVKKK-NH2; SMILES CC[C@H](C)[C@H](NC(=O)CNC(=O)[C@H](C)NC(=O)[C@H](CC(C)C)NC(=O)[C@@H](NC(=O)[C@H](CC(C)C)NC(=O)[C@H](CC(C)C)NC(=O)CN(C)C(=O)CN(C)C(=O)CN(C)C(=O)[C@H](C)NC(C)=O)C(C)C)C(=O)NCC(=O)N[C@H](C(=O)N[C@H](C(=O)NCC(=O)N[C@@H](CC(C)C)C(=O)N[C@H](C(=O)N[C@@H](CCCCN)C(=O)N[C@@H](CCCCN)C(=O)N[C@@H](CCCCN)C(N)=O)C(C)C)[C@@H](C)CC)[C@@H](C)CC) [SCR peptide, scrambled version of TM4 peptide, identical composition but lacking the GG7 motif, reference compound]”, for which the “inhibition … single agent” value in series [1] is listed as “neither the mixture of BZK+SCR peptide nor the SCR peptide alone inhibited bacterial growth”. Besides, the “inhibition of bacterial growth, peptide together with BZK” value in series [1] is “neither the mixture of BZK+SCR peptide nor the SCR peptide alone inhibited bacterial growth”; in series [1] (listed as ‘scrambled’ analog of the TM4 peptide), “inactive”.
Take `CC[C@H](C)[C@H](NC(=O)[C@H](CC(C)C)NC(=O)[C@H](C)NC(=O)[C@H](CC(C)C)NC(=O)CNC(=O)[C@@H](NC(=O)[C@@H](NC(=O)CNC(=O)[C@H](C)NC(=O)[C@@H](NC(=O)CN(C)C(=O)CN(C)C(=O)CN(C)C(=O)[C@H](C)NC(C)=O)C(C)C)C(C)C)C(C)C)C(=O)N[C@H](C(=O)N[C@@H](C)C(=O)NCC(=O)N[C@H](C(=O)N[C@H](C(=O)N[C@H](C(=O)N[C@@H](CC(C)C)C(=O)N[C@@H](CC(N)=O)C(=O)N[C@H](C(=O)N[C@@H](C)C(=O)N[C@@H](CO)C(=O)N[C@@H](CCCCN)C(=O)N[C@@H](CCCCN)C(=O)N[C@@H](CCCCN)C(N)=O)C(C)C)C(C)C)C(C)C)C(C)C)C(C)C` [TM4(85-105)] (Ac-A[Sar][Sar][Sar]VAGVVGLALIVAGVVVLNVASKKK-NH2): in the series on Hsmr, the “inhibition of Hsmr-mediated EtBr efflux” value is on record as “specifically inhibit Hsmr-mediated efflux”. In addition, in series [3], the hemolytic activity entry was “partially hemolytic” and the “minimal hemolytic concentration (MHC)” value was around 10 µM.
